Assay [1] concerns the target postsynaptic muscarinic cholinergic receptors on bladder detrusor muscle (Cavia porcellus, UniProt Q8VH26). It counts as biochemical, guinea-pigs. The note with it: guinea pig bladder strips, carbachol as agonist. As to the method: (§1) Serial dilutions (1:10) in saline or water are made from the stock solution.
(§2) Serial dilutions (1:10) in saline or water are made from the stock solution. […] Serial dilutions (1:10) in water are made from the stock solution. Other solvents may be used when appropriate and will be specifically described in the experimental procedure. Appropriate volumes are then added to the baths in order to obtain the desired bath concentrations.
(§3) With each concentration step, the tissue contracts isometrically. The next concentration is added only after the preceding contraction has reached a steady value.
Three or four different concentrations of antagonist are studied in the same preparations.

The target of assay [2] is postsynaptic muscarinic cholinergic receptors on intestinal (ileal) longitudinal smooth muscle (Cavia porcellus, UniProt Q8VH26). In kind it is biochemical, guinea-pigs. The settings on record: guinea pig ileum longitudinal muscle, carbachol as agonist. As to the method:
The cavity is opened and the small intestine is removed, with about 10 cm of the terminal ileum being discarded. […] The segments are preferentially taken from the aboral end of the ileum.
The preparations are allowed to recover for an additional 12 minutes before being used in experiments.
as §1, §2, §3
Three or four different concentrations of antagonist are studied in the same preparations. Responses are expressed relative to the maximum contraction elicited by carbachol in the absence of antagonist.

Assay [3] deals with bladder contraction strength (PvesP). In kind it is in vivo, Guinea pigs. The note with it: T-1/2 of the compound compared with T-1/2 of oxybutynin.
Description: To assess test compounds with a more intact model system, a method which more closely mimics the natural slow filling of the bladder is used.
This clinical CMG is produced by catheterizing the bladder so it may be filled, emptied and refilled with fluid while simultaneously measuring the internal bladder pressure (Pves). […] This allows the bladder to reach maximum capacity/pressure before sensory systems initiate the normal urge and micturition reflex patterns. We use a modification of this clinical test to determine duration of action of test compounds by repeated filling of the bladder following i.v. administration of the test compound. Peak pressure above the threshold pressure is the primary measure of action which can be inhibited by the test compounds and can be used to determine potency and duration of action in this anesthetized Guinea pig model. […]
Test drugs and reference compounds are normally prepared as a solution in normal saline, acidified or made basic as needed to get the compound into solution at the desired concentration. Drugs are delivered at selected mg/kg (calculated as free base) doses i.v. in a volume of approximately 0.5 to 0.8 ml. […]

Some results are limits rather than exact numbers.

Sequence of postsynaptic muscarinic cholinergic receptors on bladder detrusor muscle (Q8VH26 entry or part of it): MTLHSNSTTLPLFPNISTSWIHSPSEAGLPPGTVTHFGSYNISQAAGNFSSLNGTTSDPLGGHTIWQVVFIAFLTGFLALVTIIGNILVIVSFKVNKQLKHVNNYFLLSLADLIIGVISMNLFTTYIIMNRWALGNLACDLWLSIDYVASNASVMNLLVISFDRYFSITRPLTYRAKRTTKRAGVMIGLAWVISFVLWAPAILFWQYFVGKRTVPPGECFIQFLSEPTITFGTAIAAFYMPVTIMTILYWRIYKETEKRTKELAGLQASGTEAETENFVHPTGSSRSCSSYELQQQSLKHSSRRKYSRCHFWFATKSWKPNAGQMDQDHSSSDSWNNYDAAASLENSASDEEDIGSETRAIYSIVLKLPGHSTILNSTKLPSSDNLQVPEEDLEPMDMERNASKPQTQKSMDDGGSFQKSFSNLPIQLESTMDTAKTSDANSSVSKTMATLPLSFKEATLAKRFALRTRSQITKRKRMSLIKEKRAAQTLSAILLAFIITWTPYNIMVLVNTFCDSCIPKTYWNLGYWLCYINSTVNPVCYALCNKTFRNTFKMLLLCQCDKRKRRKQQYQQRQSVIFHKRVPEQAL
Sequence of postsynaptic muscarinic cholinergic receptors on intestinal (ileal) longitudinal smooth muscle (Q8VH26 entry or part of it): as above

On to “1-(6-Diethylaminohex-4-yn-2-one)-1-hydroxy-1,2,3,4-tetrahydronaphthalene N-cyclohexylsulfamate hydrate [Compound 11]”, for which the Kb was 512 nM in assay [1] and more than 1000 nM in assay [2].
Take `CCN(CC)CC#CCCC1(C(O)(c2ccccc2)C2CCCCC2)SCCCS1` (centres unmarked) [Compound 2, 1-Cyclohexyl-1-phenyl-1-hydroxy-7-diethylaminohept-5-yn-2-one bis (1,3-propylene)dithioketal hemioxalate]: in assay [1], the “Bladder Kb” value was “enhance”.
For the molecule `CCN(CC)CC#CCCC(=O)C(C)(O)c1ccccc1.O=C(O)C(=O)O` (centres unmarked) [Compound 7, 2-Hydroxy-2-phenyl-8-(N,N-diethylamino)oct-6-yn-3-one oxalate], the “Ileum Kb” value in assay [2] was “NC 10µM”.
As to `CCNCC#CCCC(=O)C(O)(c1ccccc1)C1CCCCC1` (centres unmarked) [Compound 10, 1-Cyclohexyl-1-hydroxy-phenyl-7-ethylamino-hept-5-yn-2-one hemifumarate, hydrate], in assay [3], the “half-lives of PvesP depression relative to oxybutynin” value was 1.78 times longer.
Still for that read-out and setting: the same measure for `CN(C)CC#CCCC(=O)C(O)(c1ccccc1)C1CCCCC1` (centres unmarked) [Compound 18, 1-Cyclohexyl-1-hydroxy-1-phenyl-7-dimethylaminohept-5-yn-2-one]: 2.65 times longer.
As for `CCN(CC)CC#CCC(=O)CC1(O)CCc2ccccc21.CCN(CC)CC#CCC(=O)CC1(O)CCc2ccccc21.O.O=C(O)C(=O)O.O=C(O)C(=O)O` (centres unmarked) [Compound 21, 1-(6-N,N-Diethylaminohex-4-yn-2-one)-1-hydroxyindan oxalate semihydrate], the “Bladder Kb” value in assay [1] is reported as “N.E”. The “Ileum Kb” value in assay [2] is on record as “N.E”.

Source of the values: patent publication EP0251126B1, “1,7-substituted heptyne-2-ones” (priority 1986, dated 1988).
